Measured values: paper PMC12605013, “SAG1.3-derived Frizzled-targeting small-molecule compounds” (The Journal of Biological Chemistry, 2025)

Assays:
[1] = molecular target: T1, HiBiT-FZD5 (Homo sapiens, UniProt Q13467); assay: NanoBiT cell surface expression assay, HiBiT-FZD5; assay type: cell-based; conditions: 10 μM, overnight exposure
T1 construct: expressed in transfected cells; host or cells: HEK293A cells
Protocol: Subsequently, 10 μl of either compound 11 or 26 (DD436001) was added at a final concentration of 10 μM. DMSO was added separately as a control. One day after compound or DMSO addition, cells were washed once with HBSS, and 90 μl of HBSS was added to the wells. To measure cell surface expression, a 1:20 dilution of furimazine live cell substrate and 1:20 LgBiT mix (final dilution = 1:200) were prepared in HBSS and 10 μl was added. The plate was incubated for 30 min to allow for HiBiT–LgBiT complementation, and then luminescence was measured on a TECAN Spark multimode microplate reader between 460 and 500 nm (integration time: 200 ms).
Figure S4. BRET time-course of compound 11 at the FZD5-DEP-Clamp in agonist mode and HiBiT-FZD5/6 surface expression upon compound exposure. (A) Shown is the BRET time-course recorded upon addition of 30 µM compound 11 or vehicle (DMSO). Experiments were performed in HEK293A cells stably expressing the FZD5-DEP-Clamp sensor. […] The timepoint of ligand addition is indicated by a black arrow. (B, C) Impact of compound 11 on FZD cell surface expression. The cell surface pool of transiently-transfected HiBiT-FZD5 (B) and HiBiT-FZD6 (C) was assessed by addition of recombinant LgBiT in combination with detection of NanoBiT luminescence. […]

[2] = molecular target: T2, Nluc-FZD4 (Homo sapiens, UniProt Q9ULV1); assay: BRET-based BODIPY-cyclopamine competition binding at Nluc-FZD4; conditions: BODIPY-cyclopamine 200 nM; ΔFZD1-10 HEK293T cells; read-out: pIC50 (11) mean ± SEM, Nluc-FZD4 (converted)
T2 construct: expressed in transfected cells; host or cells: ΔFZD1–10 HEK293T cells
T2 sequence (Q9ULV1 37-537): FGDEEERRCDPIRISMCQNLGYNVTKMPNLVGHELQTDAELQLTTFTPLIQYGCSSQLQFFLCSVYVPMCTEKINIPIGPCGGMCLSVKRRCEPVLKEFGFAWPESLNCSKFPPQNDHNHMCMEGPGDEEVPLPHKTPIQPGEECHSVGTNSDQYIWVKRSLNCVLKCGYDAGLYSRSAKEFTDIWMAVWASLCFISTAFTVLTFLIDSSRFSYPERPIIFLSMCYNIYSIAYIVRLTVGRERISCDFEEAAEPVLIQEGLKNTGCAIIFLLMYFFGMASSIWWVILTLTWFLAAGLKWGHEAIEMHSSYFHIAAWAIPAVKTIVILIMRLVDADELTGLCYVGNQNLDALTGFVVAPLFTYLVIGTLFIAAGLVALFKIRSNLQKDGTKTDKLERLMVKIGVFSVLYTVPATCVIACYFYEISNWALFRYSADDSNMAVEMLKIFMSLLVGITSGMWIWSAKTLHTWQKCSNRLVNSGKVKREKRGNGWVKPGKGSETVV
Protocol: After 24 h, cells were washed once with Hanks' balanced salt solution (HBSS), followed by the addition of 80 μl of HBSS. Next, 10 μl of the competitive ligand, that is, the tested SAG1.3 derivative (either in different concentrations for the concentration–response curves or at a final concentration of 10 μM for the first screens) and 10 μl of the fluorescent tracer BODIPY–cyclopamine (final concentration: 300 nM for the first screens, 200 nM for the concentration–response experiments) were added. All serial dilutions were prepared in HBSS. The cells were incubated for 90 min at 37 °C without additional CO2, after which 10 μl of luciferase substrate diluted in HBSS (furimazine; Promega, N1572, final dilution: 1:1000 for first screening) and coelenterazine h (Biosynth; final concentration: 5 μM for concentration–response experiments) were added to the cells. Following a 10 min incubation period in the dark, the measurement was started on a BMG Labtech ClarioStar or TECAN Spark multimode microplate reader, prewarmed to 37 °C. Nluc bioluminescence was detected between 460 and 490 nm (ClarioStar) or 460 and 500 nm (TECAN Spark). The emission of the fluorescent tracer was detected between 520 and 550 nm (ClarioStar) or between 520 and 560 nm (TECAN Spark). […]

T1 sequence (Q13467 27-585): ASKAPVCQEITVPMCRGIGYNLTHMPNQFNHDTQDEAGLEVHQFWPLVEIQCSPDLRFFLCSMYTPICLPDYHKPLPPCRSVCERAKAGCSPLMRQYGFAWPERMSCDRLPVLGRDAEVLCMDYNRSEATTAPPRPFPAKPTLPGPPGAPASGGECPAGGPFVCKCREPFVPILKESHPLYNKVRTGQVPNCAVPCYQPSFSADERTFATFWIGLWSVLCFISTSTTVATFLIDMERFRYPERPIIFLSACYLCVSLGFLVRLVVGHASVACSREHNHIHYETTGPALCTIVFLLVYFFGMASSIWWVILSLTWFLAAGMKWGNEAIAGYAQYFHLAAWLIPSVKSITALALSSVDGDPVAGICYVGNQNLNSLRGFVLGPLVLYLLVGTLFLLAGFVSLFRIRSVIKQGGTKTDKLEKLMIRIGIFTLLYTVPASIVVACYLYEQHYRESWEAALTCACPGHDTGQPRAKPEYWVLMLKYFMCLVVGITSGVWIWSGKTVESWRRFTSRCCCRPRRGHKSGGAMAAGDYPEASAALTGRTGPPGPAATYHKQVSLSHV

CC(=O)Nc1cccc(C(=O)NC2CCC(N(Cc3cccc(-c4ccncc4)c3)C(=O)c3sc4ccccc4c3Cl)CC2)c1 (centres unmarked) [compound 11, N-((1r,4r)-4-(3-Acetamidobenzamido)cyclohexyl)-3-chloro-N-(3-(pyridin-4-yl)benzyl)benzo[b]thiophene-2-carboxamide]
Effect on surface levels of HiBiT-FZD5 [1]: had no effect
IC50 [2]: 0.955 µM
